According to patent publication US10202361B2, “Pyridazinones as herbicides” (E I DU PONT DE NEMOURS AND COMPANY, priority 2014, dated 2019):
Like-named read-outs stand apart in the source and are kept apart here.

Experiments:
Type in all cases: in vivo
[1] = test system: sedge, umbrella (small-flower umbrella sedge, Cyperus difformis); assay: Test B flooded paddy test; settings: Cyperus difformis, 312 h, Flood, scale of 0 to 100, 0 is no effect, 100 is complete control, 13 to 15 d, read-out: Plant response rating, Sedge, Umbrella; for pest or weed control at 250 g/ha: 250 g ai/ha
Method in brief: (§1)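 Seedlings at 2 leaves are flooded to 3 cm, compound is added to the water, and that level is kept for the whole test. Plants stay in the greenhouse 13 to 15 d before visual comparison with controls, scored 0–100 where 100 means complete control.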

[2] = test system: barnyardgrass (Echinochloa crus-galli); assay: Test B flooded paddy test; settings: Echinochloa crus-galli, 312 h, Flood, scale of 0 to 100, 0 is no effect, 100 is complete control, 13 to 15 d, read-out: Plant response rating, Barnyardgrass; for pest or weed control at 250 g/ha: 250 g ai/ha
Method in brief: as §1

[3] = test system: ducksalad (Heteranthera limosa); assay: Test B flooded paddy test; settings: Heteranthera limosa, 312 h, Flood, scale of 0 to 100, 0 is no effect, 100 is complete control, 13 to 15 d, read-out: Plant response rating, Ducksalad; for pest or weed control at 250 g/ha: 250 g ai/ha
Method in brief: as §1

rice (Oryza sativa) = assay: Test B flooded paddy test; settings: Oryza sativa, 312 h, Flood, scale of 0 to 100, 0 is no effect, 100 is complete control, 13 to 15 d, read-out: Plant response rating, Rice; for plant injury at 250 g/ha: 250 g ai/ha
Method in brief: as §1

[4] = test system: chickweed (common chickweed, Stellaria media); assay: Test C postemergence greenhouse herbicide test
Description: At the same time, plants selected from these crop and weed species and also barley (winter barley, Hordeum vulgare), canarygrass (Phalaris minor), windgrass (Apera spica-venti), deadnettle (henbit deadnettle, Lamium amplexicaule), and chickweed (common chickweed, Stellaria media) were planted in pots containing Redi-Earth® planting medium (Scotts Company, 14111 Scottslawn Road, Marysville, Ohio 43041) comprising spaghnum peat moss, vermiculite, wetting agent and starter nutrients and treated with postemergence applications of test chemicals formulated in the same manner. Plants ranged in height from 2 to 18 cm (1- to 4-leaf stage) for postemergence treatments. Treated plants and controls were maintained in a greenhouse for 13 to 15 d, after which time all species were compared to controls and visually evaluated. Plant response ratings, summarized in Table C, are based on a scale of 0 to 100 where 0 is no effect and 100 is complete control. A dash (-) response means no test result.

[5] = test system: velvetleaf (Abutilon theophrasti); assay: Test C pre-/postemergence greenhouse herbicide test; settings: for pest or weed control at 62 g/ha: 62 g ai/ha; for pest or weed control at 125 g/ha: 125 g ai/ha; for Plant response rating, Velvetleaf: visual rating on scale 0 (no effect) to 100 (complete control), 13 to 15 d
Method in brief: (§2)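 Seeds in loam–sand blend sprayed preemergence, and 1- to 4-leaf plants (2–18 cm) sprayed postemergence, with compounds in non-phytotoxic solvent plus surfactant. Visual rating versus controls after 13–15 d in greenhouse, 0 (no effect) to 100 (complete control).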

[6] = test system: nutsedge, yellow (yellow nutsedge, Cyperus esculentus); assay: as above; settings: for pest or weed control at 31 g/ha / pest or weed control at 62 g/ha / pest or weed control at 125 g/ha / pest or weed control at 250 g/ha: Cyperus, Nutsedge, Yellow, read-out: Plant response rating; for pest or weed control at 31 g/ha: 31 g ai/ha; for pest or weed control at 62 g/ha: 62 g ai/ha; for pest or weed control at 125 g/ha: 125 g ai/ha; for pest or weed control at 250 g/ha: 250 g ai/ha; for Plant response rating, Nutsedge, Yellow: visual rating on scale 0 (no effect) to 100 (complete control), 13 to 15 d
Method in brief: as §2

[7] = test system: foxtail, giant (giant foxtail, Setaria faberii); assay: as above; settings: for pest or weed control at 31 g/ha / pest or weed control at 62 g/ha / pest or weed control at 125 g/ha / pest or weed control at 250 g/ha: Setaria faberi, Foxtail, Giant, read-out: Plant response rating; for pest or weed control at 31 g/ha: 31 g ai/ha; for pest or weed control at 62 g/ha: 62 g ai/ha; for pest or weed control at 125 g/ha: 125 g ai/ha; for pest or weed control at 250 g/ha: 250 g ai/ha; for Plant response rating, Foxtail, Giant: visual rating on scale 0 (no effect) to 100 (complete control), 13 to 15 d
Method in brief: as §2

[8] = test system: johnsongrass (Sorghum halepense); assay: as above; settings: for pest or weed control at 31 g/ha / pest or weed control at 62 g/ha / pest or weed control at 125 g/ha / pest or weed control at 250 g/ha: Sorghum halepense, Johnsongrass, read-out: Plant response rating; for pest or weed control at 31 g/ha: 31 g ai/ha; for pest or weed control at 62 g/ha: 62 g ai/ha; for pest or weed control at 125 g/ha: 125 g ai/ha; for pest or weed control at 250 g/ha: 250 g ai/ha; for Plant response rating, Johnsongrass: visual rating on scale 0 (no effect) to 100 (complete control), 13 to 15 d
Method in brief: as §2

[9] = test system: oilseed rape (Brassica napus); assay: as above; settings: Preemergence; for Plant response rating: Oilseed Rape; for Plant response rating, Oilseed Rape: visual rating on scale 0 (no effect) to 100 (complete control), 13 to 15 d
Method in brief: as §2

[10] = Abutilon theophrasti, post-emergence, Velvetleaf, Postemergence, read-out: Plant response rating
[11] = Abutilon theophrasti, pre-emergence, Velvetleaf, Preemergence, read-out: Plant response rating

Q: Which results are given for `Cc1cc(=O)n(-c2ccc(F)cc2)nc1Cn1ccc(C(F)(F)F)n1` [Compound 3, 2-(4-fluorophenyl)-5-methyl-6-[[3-(trifluoromethyl)-1H-pyrazol-1-yl]methyl]-3(2H)-pyridazinone]?
A: pest or weed control at 250 g/ha [1]: 0%; pest or weed control at 250 g/ha [2]: 0%; pest or weed control at 250 g/ha [3]: 0%; plant injury at 250 g/ha (rice (Oryza sativa)): 0%

Q: Which pest or weed control at 125 g/ha ([1]; 125 g ai/ha) does the source give for `Cc1cc(=O)n(-c2ccc(C(F)(F)F)cc2)nc1Oc1ccnc(C(F)(F)F)c1` [Compound 5, 5-methyl-2-[4-(trifluoromethyl)phenyl]-6-[[2-(trifluoromethyl)-4-pyridinyl]oxy]-3(2H)-pyridazinone] here?
A: 80%

Q: What about the pest or weed control at 125 g/ha ([2]; 125 g ai/ha) of the same compound?
A: 55%

Q: What about the pest or weed control at 125 g/ha ([3]; 125 g ai/ha) of the same compound?
A: 75%

Q: What about the plant injury at 125 g/ha (rice (Oryza sativa); 125 g ai/ha) of the same compound?
A: 55%

Q: For `Cc1cc(=O)n(-c2ccc(F)cc2)nc1Oc1ccnc(C(F)(F)F)c1` [Compound 14, 2-(4-fluorophenyl)-5-methyl-6-[[2-(trifluoromethyl)-4-pyridinyl]oxy]-3 (2H)-pyridazinone], which pest or weed control at 250 g/ha [1] is on record?
A: 75%

Q: What about the pest or weed control at 250 g/ha [2] of the same compound?
A: 40%

Q: And the pest or weed control at 250 g/ha [3]?
A: 75%

Q: And the plant injury at 250 g/ha (rice (Oryza sativa))?
A: 30%

Q: What about the Plant response rating ([4]; 31 g ai/ha) of the same compound?
A: 35

Q: And the Plant response rating ([4]; 62 g ai/ha)?
A: 35

Q: What about the Plant response rating ([4]; 125 g ai/ha) of the same compound?
A: 35

Q: And the Plant response rating ([4]; 250 g ai/ha)?
A: 55

Q: What about the pest or weed control at 31 g/ha ([5]; Abutilon theophrasti, post-emergence, Velvetleaf, Postemergence, 31 g ai/ha, read-out: Plant response rating) of the same compound?
A: 10%

Q: What about the pest or weed control at 62 g/ha [5, 10] of the same compound?
A: 30%

Q: What about the pest or weed control at 125 g/ha [5, 10] of the same compound?
A: 50%

Q: What about the pest or weed control at 62 g/ha [5, 11] of the same compound?
A: 10%

Q: What about the pest or weed control at 125 g/ha [5, 11] of the same compound?
A: 20%

Q: And the pest or weed control at 250 g/ha ([5]; Abutilon theophrasti, pre-emergence, Velvetleaf, Preemergence, 250 g ai/ha, read-out: Plant response rating)?
A: 100%

Q: And the pest or weed control at 31 g/ha ([6]; post-emergence, Postemergence)?
A: 5%

Q: And the pest or weed control at 62 g/ha ([6]; post-emergence, Postemergence)?
A: 5%

Q: What about the pest or weed control at 125 g/ha ([6]; post-emergence, Postemergence) of the same compound?
A: 5%

Q: And the pest or weed control at 250 g/ha ([6]; post-emergence, Postemergence)?
A: 10%

Q: And the pest or weed control at 31 g/ha ([6]; pre-emergence, Preemergence)?
A: 0%

Q: What about the pest or weed control at 62 g/ha ([6]; pre-emergence, Preemergence) of the same compound?
A: 5%

Q: And the pest or weed control at 125 g/ha ([6]; pre-emergence, Preemergence)?
A: 25%

Q: What about the pest or weed control at 250 g/ha ([6]; pre-emergence, Preemergence) of the same compound?
A: 25%

Q: What about the pest or weed control at 31 g/ha ([7]; post-emergence, Postemergence) of the same compound?
A: 5%

Q: What about the pest or weed control at 62 g/ha ([7]; post-emergence, Postemergence) of the same compound?
A: 10%

Q: What about the pest or weed control at 125 g/ha ([7]; post-emergence, Postemergence) of the same compound?
A: 10%

Q: What about the pest or weed control at 250 g/ha ([7]; post-emergence, Postemergence) of the same compound?
A: 15%

Q: And the pest or weed control at 31 g/ha ([7]; pre-emergence, Preemergence)?
A: 80%

Q: What about the pest or weed control at 62 g/ha ([7]; pre-emergence, Preemergence) of the same compound?
A: 98%

Q: What about the pest or weed control at 125 g/ha ([7]; pre-emergence, Preemergence) of the same compound?
A: 100%

Q: And the pest or weed control at 250 g/ha ([7]; pre-emergence, Preemergence)?
A: 100%

Q: And the pest or weed control at 31 g/ha ([8]; post-emergence, Postemergence)?
A: 10%

Q: And the pest or weed control at 62 g/ha ([8]; post-emergence, Postemergence)?
A: 15%

Q: And the pest or weed control at 125 g/ha ([8]; post-emergence, Postemergence)?
A: 25%

Q: And the pest or weed control at 250 g/ha ([8]; post-emergence, Postemergence)?
A: 30%

Q: What about the pest or weed control at 31 g/ha ([8]; pre-emergence, Preemergence) of the same compound?
A: 5%

Q: What about the pest or weed control at 62 g/ha ([8]; pre-emergence, Preemergence) of the same compound?
A: 35%

Q: What about the pest or weed control at 125 g/ha ([8]; pre-emergence, Preemergence) of the same compound?
A: 35%

Q: What about the pest or weed control at 250 g/ha ([8]; pre-emergence, Preemergence) of the same compound?
A: 85%

Q: What does the source list for `CCOc1cc(=O)n(-c2ccc(F)cc2)nc1C(=O)c1ccnc(C(F)(F)F)c1` [Compound 22, 5-ethoxy-2-(4-fluorophenyl)-6-[[2-(trifluoromethyl)-4-pyridinyl]carbonyl]-3(2H)-pyridazinone]?
A: pest or weed control at 250 g/ha [1]: 80%; pest or weed control at 250 g/ha [2]: 10%; pest or weed control at 250 g/ha [3]: 70%; plant injury at 250 g/ha (rice (Oryza sativa)): 10%

Q: How did the pest or weed control at 250 g/ha [1] turn out when `CCOc1cc(=O)n(-c2ccc(F)cc2)nc1C(O)c1ccnc(C(F)(F)F)c1` (stereo not shown) [Compound 23, 5-ethoxy-2-(4-fluorophenyl)-6-[hydroxy[2-(trifluoromethyl)-4-pyridinyl]methyl]-3(2H)-pyridazinone] was run?
A: 70%

Q: And the pest or weed control at 250 g/ha [2]?
A: 10%

Q: What about the pest or weed control at 250 g/ha [3] of the same compound?
A: 80%

Q: What about the plant injury at 250 g/ha (rice (Oryza sativa)) of the same compound?
A: 10%

Q: And the pest or weed control at 62 g/ha [5, 11]?
A: 100%

Q: What about the “Plant response rating, Velvetleaf” value ([5]; Preemergence, 8 g ai/ha) of the same compound?
A: 0

Q: What about the “Plant response rating, Velvetleaf” value ([5]; Preemergence, 16 g ai/ha) of the same compound?
A: 15

Q: And the pest or weed control at 31 g/ha ([6]; pre-emergence, Preemergence)?
A: 0%

Q: And the pest or weed control at 62 g/ha ([6]; pre-emergence, Preemergence)?
A: 0%

Q: And the “Plant response rating, Nutsedge, Yellow” value ([6]; Preemergence, 8 g ai/ha)?
A: 0

Q: And the “Plant response rating, Nutsedge, Yellow” value ([6]; Preemergence, 16 g ai/ha)?
A: 0

Q: What about the “Plant response rating, Foxtail, Giant” value ([7]; Preemergence, 8 g ai/ha) of the same compound?
A: 5

Q: What about the “Plant response rating, Foxtail, Giant” value ([7]; Preemergence, 16 g ai/ha) of the same compound?
A: 55

Q: What about the pest or weed control at 31 g/ha ([7]; pre-emergence, Preemergence) of the same compound?
A: 75%

Q: And the pest or weed control at 62 g/ha ([7]; pre-emergence, Preemergence)?
A: 90%

Q: What about the Plant response rating ([9]; 31 g ai/ha) of the same compound?
A: 80

Q: What about the Plant response rating ([9]; 62 g ai/ha) of the same compound?
A: 85

Q: And the “Plant response rating, Oilseed Rape” value ([9]; 8 g ai/ha)?
A: 5

Q: And the “Plant response rating, Oilseed Rape” value ([9]; 16 g ai/ha)?
A: 5

Q: And the “Plant response rating, Johnsongrass” value ([8]; Preemergence, 8 g ai/ha)?
A: 0

Q: And the “Plant response rating, Johnsongrass” value ([8]; Preemergence, 16 g ai/ha)?
A: 5

Q: What about the pest or weed control at 31 g/ha ([8]; pre-emergence, Preemergence) of the same compound?
A: 5%

Q: What about the pest or weed control at 62 g/ha ([8]; pre-emergence, Preemergence) of the same compound?
A: 10%
